Experimental findings from a melting point compilation (Tetko et al.; mined from patent text by program, amines drawn as free bases though some values may be those of a salt) are described below.

Some results are limits rather than exact numbers.

Take `CCOC(=O)c1c(N)n(C)c2ccccc12`: the melting point was 132 to 134 °C.

The compound `CN1CCN(S(=O)(=O)c2ccc(N3CCC(NC[C@H](O)c4ccc(O)c(NS(C)(=O)=O)c4)CC3)cc2)CC1` gave a melting point of 89 to 91 °C.

With `COc1cc(C(=O)N2CCCCc3cc(Cl)ccc32)ccc1OCc1ccccc1Cl`, the melting point was determined as 135 °C. In the case of `COc1ccc(-n2nc(C(F)(F)F)nc2-c2ccc(S(N)(=O)=O)cc2)cc1` it was 228 °C; in that of `CS(=O)(=O)N1CCSc2cccc(F)c2C1`, 115 to 117 °C. In the case of `CCc1c(C)nc(OC)c(NC(=O)C(C)(C)C)c1Cc1cc(C)cc(C)c1` it was 138 to 139 °C; in that of `c1ccc2c(c1)Cc1sccc1CN2`, 86 °C; in that of `COc1cc(OC)c(/C=C/C(=O)Nc2ccc(OC)c(N)c2)c(OC)c1`, 92 to 94 °C. The figure for `CC1N=C(c2ccccc2Cl)c2c(ccc(NC(=O)NC3CCC(O)CC3)c2Br)N(C)C1=O` (configuration not stated) is 226 to 227 °C; for `CCCCCOc1ccc(CO)cc1OC(C)=O` it is 35 to 36 °C. With `N=C(NO)c1ccc(-c2cnc(-c3ccc(C(=N)NO)cc3)nc2)cc1`, the melting point fell in the range of 290 to 292 °C.

`COc1cc(-c2c(C)noc2C)cc2oc(=O)c(C)c(C)c12`: the melting point fell in the range of 145 to 147 °C. As for `COC(=O)c1cc(C(F)(F)F)cc(OCc2ccccc2)c1OCc1ccccc1`, the melting point lay within 78 to 79 °C. In the case of `CCOC(=O)C=Cc1ccc(OCc2nc(-c3ccccc3)oc2C)cc1` it was 145 to 146 °C; in that of `CC1(C)CC(C)(c2ccc(Oc3ccc(N)cc3)cc2)c2cc(Oc3ccc(N)cc3)ccc21` (configuration not stated), 135 to 136 °C; in that of `CCN(CC)C(=O)Nc1ccc(S(=O)(=O)N2C(=O)C(N[C@@H](C)C(=O)OC)(c3ccccc3Cl)c3cc(Cl)ccc32)cc1` (some centres not stated), 204 °C.

`C[C@@H]1CN(C(=O)c2cc3c(C(=O)OC(C)(C)C)ncn3c3ccccc23)C[C@H](C)N1` came in with a melting point of 233 to 234 °C. In the case of `Cn1c([N+](=O)[O-])cnc1C1=NO[C@H]2CCCCC[C@@H]12` (relative stereo) it was 93 to 95 °C; in that of `CN(C)CC(C)(C)Oc1cnc(Nc2cc(-c3cccc(-n4ncc5cc(C(C)(C)C)cc(F)c5c4=O)c3CO)nn(C)c2=O)cn1`, 235 to 240 °C.

In the case of `CCOC(=O)C=CC(=CN)C(=O)OCC`, the melting point amounted to 109 °C. In the case of `CCCCCc1ccc(C=Nc2ccc(C#N)cc2)cc1` it was 45.6 to 46.4 °C; in that of `CC(C)(C)C(=O)Nc1nc(O)c2cc(C=CCOC3CCCCO3)cnc2n1` (configuration not stated), 166 to 167 °C. Regarding `O=C(O)C1=Cc2cc(Cl)c(Oc3ccc(C(=O)O)cc3)cc2OC1C(F)(F)F` (configuration not stated), the melting point is > 300 °C. Consider `COc1cc2c(cc1OC)CN(CCCc1cccc(NC(=O)c3cccc4c(=O)c5cccc(OC)c5[nH]c34)c1)CC2`, for which the melting point lay within 138 to 140 °C. In the case of `O=C(O)C#CC(=O)c1ccc2c(c1)OCO2` it was 122 to 124 °C. In the case of `NC(=O)c1cnn(-c2ccc(Cl)cc2Cl)c1C(F)(F)F` it was 191 to 193 °C.

In turn, `COCO[C@@H]1[C@H]2OC(C)(C)O[C@H]2[C@H](O[C@H]2C[C@H]3OC(C)(C)OC[C@]34C3C(CC[C@]4(O)C2)[C@@]2(O)CC[C@H](C#N)[C@@]2(C)C[C@H]3OCOC)O[C@H]1C` (some centres not stated) had a melting point of 97 to 99 °C. The figure for `Cn1cc(-c2cccc(C(F)(F)F)c2)c(=O)c(C2CCCCC2)c1` is 174 to 175 °C. The figure for `Cc1cccc(-c2nc(NCc3ccc(Cl)cc3)c3ccccc3n2)n1` is 210 to 212 °C. `COC(=O)[C@@H](Cc1ccccc1)NC(=O)OCc1cc2cc(-c3ccccc3)ccc2[nH]1`: the melting point is 142 to 143 °C.

`CC(=O)Nc1cc(CO)ccn1` registered a melting point of 145 °C. In the case of `CC(=O)N1CCn2c(c(C3=C(c4cn(C)c5ccccc45)C(=O)NC3=O)c3ccccc32)C1` it was 308 to 310 °C; in that of `Cc1nc2c(s1)C=Cc1cc(Cl)ccc1C2c1cn(C)c(=O)[nH]c1=S` (configuration not stated), 305 °C. Turning to `CCOC(=O)c1ncn2c(-c3cccnc3)ccnc12`, the melting point was 184 to 186 °C.

Regarding `O=C(O)c1cc(OCc2ccccc2)cc(OCc2ccccc2)c1`, the melting point was in the range of 211 to 213 °C.

Compound `CC1CC(=O)c2cc(N)c(F)cc2O1` (configuration not stated) returned a melting point of 135 to 138 °C. The figure for `O=C(O)CC1(C(=O)O)CCOc2ccc(C(=O)O)cc21` (configuration not stated) is 198 to 200 °C. In the case of `CC(C)c1cccc(C(C)C)c1NC(=O)Nc1nnnn1Cc1ccccc1` it was 195 to 197 °C; in that of `c1cc(-c2cnn3cc(-c4ccc(OCCN5CCCCC5)cc4)cnc23)cs1`, 141 to 143 °C.

`CCOC(=O)c1cn(-c2ccccn2)nc1C` yielded a melting point of 79 to 80 °C. The figure for `CS(=O)(=O)c1ccc(C=Cc2ccc(NCCCCCCO)cc2)cc1` is 113 to 115 °C. The figure for `Cc1cc(C)cc(N(CCCC(N)=O)Cc2ccc3nc(NCCCN4CCOCC4)n(Cc4cccc(Br)n4)c3c2)c1` is 82 °C; for `c1cc(Oc2ccc3c(c2)CCCN3)ccn1` it is 117 to 122 °C. The figure for `CC12CC(C)(C1)C(=O)N(C(C)(C)C)C2=O` is 65 to 65.5 °C; for `Cc1nnc(CNc2c(C)cccc2C)s1` it is 68 to 69 °C. The compound `CCc1cc2c(s1)-n1c(C3CCCCC3)nnc1C(N)N=C2c1ccccc1Cl` (configuration not stated) yielded a melting point of 175 to 176 °C.

The compound `CN(C)CCCn1ccc(-c2ccc(F)cc2)c1-c1ccncc1` displayed a melting point of 93 to 95 °C. In the case of `CCCOc1ccc(S(C)(=O)=O)cc1C(=O)O` it was 148 to 152 °C. The figure for `CCOC(=O)C(OC)C(=O)Nc1cccc(Cl)c1` (configuration not stated) is 43.5 to 46.5 °C; for `CCCCCCCCCCCCCCCC(=O)NC(=O)OCc1nc(C(C)C)c(Sc2cc(Cl)cc(Cl)c2)n1CC` it is 95 to 97 °C; for `CCCCc1noc(-c2ncn3c2[C@@H]2CCCN2C(=O)c2c(Cl)cccc2-3)n1` it is 181 to 182 °C. The figure for `CC(C)C[C@@H](C#N)NC(=O)[C@@H]1CCCC[C@@H]1NC(=O)c1cc2ccccc2n1CC(C)(C)O` is 102 to 106 °C; for `CNC(=O)ON=C1N=C(C2CCCCC2)C(C)(C)S1` it is 158 to 160 °C; for `CCOC(=O)c1ccc(Nc2nnc(-c3ccc(Oc4ccccc4)cc3)s2)cc1` it is 206 to 207 °C. On to `CCNC(=O)c1cc2c(Cl)ccc(-n3c(=O)cc(C(F)(F)F)n(C)c3=O)c2o1`, for which the melting point was in the range of 225 to 226 °C. Compound `CCOC(=O)c1cc(=O)c(Sc2ccccc2)co1` yielded a melting point of 79 to 81 °C. The figure for `O=C(c1cccnc1)c1cc(Br)cc(Br)c1` is 124 to 126 °C; for `CN(C)C1CCN(C2CCN(c3ncc4ncnc(Nc5ccc(F)c(Cl)c5)c4n3)CC2)CC1` it is 160 to 165 °C; for `Cc1noc(NS(=O)(=O)c2cc(Cl)c(Cl)cc2Cl)c1Br` it is 179 to 182 °C. In the case of `CN1CCN(CCC(=O)N2c3ccccc3C(=O)Nc3cccnc32)CC1` it was 232 to 233 °C; in that of `COC(=O)c1ccc(OCCNC(=O)C2Cc3ccccc3N2S(=O)(=O)c2ccc(-c3cc(C(F)(F)F)ccc3Cl)cc2)cc1C(F)(F)F` (configuration not stated), 79 °C. For the compound `O=S(=O)(N[C@H]1CC[C@H](CCN2CCC(c3cccc4c3CCO4)CC2)CC1)c1ccc(F)cc1`, the melting point stood at 134 °C. In the case of `CON=C(C)c1cc(-c2ccc(S(C)(=O)=O)cc2)c(-c2ccc(F)cc2)s1` it was 200 to 203 °C; in that of `Cc1nc(-n2ccnc(C)c2=O)sc1C(=O)NCc1ccccc1`, 186 to 187 °C; in that of `Cn1nc(NC(=O)Cc2ccccc2)c(-c2ccncc2)c1-c1ccc(F)cc1`, 158 to 160 °C.

Compound `O=C(Nc1ccc(Cl)c(C(F)(F)F)c1)N1COc2cc(OCc3ccccc3)ccc21` gave a melting point of 135 to 136 °C.

`CC(C)COC(=O)/C=C/C1NC(=O)CN1C(=O)OCc1ccccc1` (configuration not stated): the melting point fell in the range of 97 to 100 °C. In the case of `CCCC(=O)OCC(=O)C1C(C)CC2C3=C(C(O)CC21C)C1(C)C=CC(=O)C=C1C(F)C3` (configuration not stated) it was 112 °C; in that of `OC(CCc1cccnc1)COc1ccc(CCc2ccccc2)cc1` (configuration not stated), 95 to 96 °C; in that of `CNc1cccc(S(N)(=O)=O)n1`, 124 to 126 °C. The figure for `COC(=O)C=Cc1ccc(Cl)c(C(F)(F)F)c1` is 71 to 73 °C. `CC(=O)OC1CSC(Oc2cnccc2-c2c(C)noc2C)C(OC(C)=O)C1OC(C)=O` (configuration not stated) had a melting point of 150 to 155 °C.

Compound `CCn1nc(C#N)c(Br)c1CC(C)C` registered a melting point of 50 to 51 °C. The figure for `O=C1c2c(O)cccc2C(O)(c2cccs2)c2cccc(O)c21` is 191 to 192 °C. The figure for `COc1ccc(C=C=C(C)C(=O)O)cc1` is 105 to 108 °C; for `Fc1ccc(N=c2sc3ccc(Cl)cc3s2)cc1` it is 101 to 102 °C; for `O=C1c2cccc3c4c(cc(c23)C(=O)N1O)OCCO4` it is 344 to 347 °C.

Regarding `COc1ccc(CCNC[C@H](O)COc2ccc(-c3nc(Br)c[nH]3)cc2Cl)cc1OC`, the melting point lay within 172 to 174 °C.

Take `COc1cc(=O)n(-c2cccc(C(F)(F)F)c2)nc1C(C)=O`: the melting point is 136 to 138 °C. The figure for `CCCCOCCCn1c(CCCC)nc2cnc3cccnc3c21` is 56.5 to 57.5 °C. The figure for `Cc1ccccc1C(CCC(=O)O)Oc1cc(OCc2ccsc2)ccc1C#N` (configuration not stated) is 143 °C. The compound `CCON=C(C)c1ccc2c(c1)ncn2-c1cccc(-c2cccnc2)c1` displayed a melting point of 105 to 106 °C. The figure for `OCC(O)(CO)c1ccc(F)cc1F` is 58 to 59 °C; for `CCCc1c(OCc2ccc(/C=C3\SC(=S)NC3=O)cc2)ccc(C(=O)c2ccccc2)c1O` it is 229 to 230 °C; for `CN1CCC[C@@H]1Cc1c[nH]c2ccc(CS(=O)(=O)NC(C)(C)C)cc12` it is 73 to 75 °C. The figure for `COC(=O)c1cc(OC)c(O)c(C23CC4CC(CC(C4)C2)C3)c1` is 179 °C. In the case of `CC(C)(C)c1cc(C=C2CCN(CCO)C2=O)cc(C(C)(C)C)c1O` it was 191 °C.
